# Measured values published in patent publication US6462198B1, “Carbamic acid derivatives” (Hoffmann-La Roche Inc., priority 1999, dated 2002).
# Key:
# rat mGlu 1a receptor = target: T1, rat mGlu 1a receptor (Rattus norvegicus, UniProt P23385); assay: [Ca2+]i measurement (FLIPR) on mGlu 1a transfected EBNA cells; type: cell-based; settings: for agonist/antagonist: mode of action at group I mGlu receptor, [Ca2+]i FLIPR assay
# T1 construct: expressed in transfected cells; host or cells: EBNA cells (transient transfection)
# [1] = compounds acting as antagonists, tested against 10 μM glutamate as agonist
# T1 sequence (P23385 19-1199): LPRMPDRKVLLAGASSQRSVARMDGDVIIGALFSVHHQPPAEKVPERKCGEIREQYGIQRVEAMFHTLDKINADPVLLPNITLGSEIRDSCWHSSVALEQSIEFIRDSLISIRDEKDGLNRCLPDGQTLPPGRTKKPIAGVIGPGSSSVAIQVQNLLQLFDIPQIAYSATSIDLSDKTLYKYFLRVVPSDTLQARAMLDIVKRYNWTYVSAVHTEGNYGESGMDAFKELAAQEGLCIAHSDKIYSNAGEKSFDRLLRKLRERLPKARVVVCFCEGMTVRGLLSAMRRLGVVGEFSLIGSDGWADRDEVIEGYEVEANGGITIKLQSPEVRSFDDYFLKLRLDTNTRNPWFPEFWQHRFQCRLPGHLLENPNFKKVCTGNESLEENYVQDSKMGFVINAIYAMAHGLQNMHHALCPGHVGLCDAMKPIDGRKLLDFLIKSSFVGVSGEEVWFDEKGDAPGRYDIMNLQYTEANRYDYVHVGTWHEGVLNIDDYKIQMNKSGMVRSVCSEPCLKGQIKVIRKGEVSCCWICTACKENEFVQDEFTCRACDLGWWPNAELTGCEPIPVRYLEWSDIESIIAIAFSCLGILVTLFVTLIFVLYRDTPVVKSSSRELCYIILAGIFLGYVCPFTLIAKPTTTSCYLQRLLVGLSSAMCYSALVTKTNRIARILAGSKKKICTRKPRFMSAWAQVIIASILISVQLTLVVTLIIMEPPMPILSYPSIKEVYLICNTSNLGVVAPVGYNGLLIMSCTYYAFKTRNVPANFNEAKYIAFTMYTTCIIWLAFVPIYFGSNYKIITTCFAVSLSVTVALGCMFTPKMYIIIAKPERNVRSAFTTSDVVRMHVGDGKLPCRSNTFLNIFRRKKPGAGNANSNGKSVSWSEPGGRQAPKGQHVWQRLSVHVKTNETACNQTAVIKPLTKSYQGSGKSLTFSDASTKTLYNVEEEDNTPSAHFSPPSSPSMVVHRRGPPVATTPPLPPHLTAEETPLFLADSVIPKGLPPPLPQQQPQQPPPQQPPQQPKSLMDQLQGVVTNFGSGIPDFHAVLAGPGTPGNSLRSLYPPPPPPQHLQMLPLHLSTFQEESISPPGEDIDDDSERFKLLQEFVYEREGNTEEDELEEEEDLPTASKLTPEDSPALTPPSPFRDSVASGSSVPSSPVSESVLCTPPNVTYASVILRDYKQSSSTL
Molecule,melting point,other results
CCCCOC(=O)NC(=O)C(c1ccccc1)c1ccccc1,82 to 84 °C,–
CCOC(=O)NC(=O)C1c2ccccc2Sc2ccccc21,179 to 182 °C,–
O=C(NC(=O)C(c1ccccc1)c1ccccc1)OCCN1CCOCC1,135 to 137 °C,–
CCCCSC(=O)NC(=O)C(c1ccccc1)c1ccccc1,99 °C,–
CCOC(=O)NC(=O)C(c1cccc(C)c1)c1ncc(C(F)(F)F)cc1Cl (centres unmarked),146 to 147 °C,–
CCOC(=O)NC(=O)C1c2ccccc2Oc2c1cccc2C(F)(F)F (centres unmarked),196 to 198 °C,–
O=C(NC(=O)C(c1ccccc1)c1ccccc1)C1CC1,178 °C,–
CCCC(=O)NC(=O)C1c2ccccc2Oc2ccccc21,222 °C,–
CCCC(=O)NC(=O)C(c1ccccc1)c1ccccc1,205 °C,–
CC(C)(C)OC(=O)NC(=O)C(c1ccccc1)c1ccccc1,160 to 162 °C,–
CCOC(=O)NC(=O)C1c2ccccc2Oc2ccccc21,228 °C (dec.),–
CCOC(=O)NC(=O)C1c2ccccc2Oc2ccc(Br)cc21 (racemic),203 °C,–
"C=CCOC(=O)NC(=O)C(c1ccccc1)c1ccccc1 [Example 3, Diphenylacetyl-carbamic acid allyl ester]",118 to 120 °C,–
"CC(C)OC(=O)NC(=O)C(c1ccccc1)c1ccccc1 [Example 4, Diphenylacetyl-carbamic acid isopropyl ester]",122 to 124 °C,–
"O=C(NC(=O)C(c1ccccc1)c1ccccc1)OCC1CC1 [Example 10, Diphenylacetyl-carbamic acid cyclopropylmethyl ester]",108 °C,–
"C=CCOC(=O)NC(=O)C(C)(c1ccccc1)c1ccccc1 [Example 24, (2,2-Diphenyl-propionyl)-carbamic acid allyl ester]",89 °C,IC50 (rat mGlu 1a receptor; [1]): 2790 nM
"CCCCOC(=O)NC(=O)C(C)(c1ccccc1)c1ccccc1 [Example 25, (2,2-Diphenyl-propionyl)-carbamic acid butyl ester]",83 °C,IC50 (rat mGlu 1a receptor; [1]): 1380 nM
"O=C(Nc1ncco1)C1c2ccccc2Sc2ccccc21 [Example 31, 9H-Thioxanthene-9-carboxylic acid oxazol-2-ylamide]",188 to 191 °C,–
"CCCCOC(=O)NC(=O)C1c2ccccc2Sc2ccccc21 [Example 32, (9H-Thioxanthene-9-carbonyl)-carbamic acid butyl ester]",151 to 154 °C,agonist/antagonist (rat mGlu 1a receptor): agonist
"CCCCC(=O)NC(=O)C(c1ccccc1)c1ccccc1 [Example 43, Pentanoic acid diphenylacetyl-amide]",83 °C,–
"COCCc1nnc(NC(=O)C(c2ccccc2)c2ccccc2)o1 [Example 55, N-[5-(2-Methoxy-ethyl)-[1,3,4]oxadiazol-2-yl]-2,2-diphenyl-acetamide]",114 to 115 °C,–
"O=C(Nc1nnc(C2CC2)o1)C(c1ccccc1)c1ccccc1 [Example 57, N-(5-Cyclopropyl-[1,3,4]oxadiazol-2-yl)-2,2-diphenyl-acetamide]",159 to 160 °C,–
"O=C(Nc1nnc(CC2CC2)o1)C(c1ccccc1)c1ccccc1 [Example 59, N-(5-Cyclopropylmethyl-[1,3,4]oxadiazol-2-yl)-2,2-diphenyl-acetamide]",158 to 159 °C,–
"CCc1cnc(NC(=O)C(c2ccccc2)c2ccccc2)o1 [Example 63, N-(5-Ethyl-oxazol-2-yl)-2,2-diphenyl-acetamide]",148 to 149 °C,–
"Cc1cnc(NC(=O)C(c2ccccc2)c2ccccc2)o1 [Example 65, N-(5-Methyl-oxazol-2-yl)-2,2-diphenyl-acetamide]",166 to 168 °C,"IC50 (rat mGlu 1a receptor; compounds acting as agonists, activation curve): 400 nM; agonist/antagonist (rat mGlu 1a receptor): agonist"
"(2,2-Diphenyl-propionyl)-carbamic acid methyl ester [Example 23]",–,IC50 (rat mGlu 1a receptor; [1]): 6310 nM; agonist/antagonist (rat mGlu 1a receptor): antagonist
